Test results reported in patent publication US4757012A, “Ascorbic acid intermediates and process enzymes” (Genentech, Inc., priority 1984, dated 1988).

molecular target: T1, 2,5-DKG reductase (Corynebacterium sp., UniProt P06632); assay: 2,5-DKG reductase kinetic / substrate specificity assay with purified enzyme; type: biochemical, Corynebacterium sp. ATCC 31090; details: not given
T1 construct: made in house; host or cells: Corynebacterium sp; ATCC 31090 (natural producer, native enzyme purified from cell paste, not recombinant)
From the text: The following assay conditions were used to determine kinetic parameters: […]

T1 sequence (P06632 whole entry): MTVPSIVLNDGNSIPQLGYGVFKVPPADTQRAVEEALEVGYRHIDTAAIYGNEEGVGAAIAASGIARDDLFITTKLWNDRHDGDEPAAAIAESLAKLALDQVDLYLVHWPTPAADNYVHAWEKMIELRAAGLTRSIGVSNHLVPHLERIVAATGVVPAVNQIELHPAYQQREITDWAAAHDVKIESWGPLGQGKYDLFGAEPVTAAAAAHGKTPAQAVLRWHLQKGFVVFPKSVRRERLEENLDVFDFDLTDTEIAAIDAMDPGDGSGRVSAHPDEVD

SMILES | Alteration of enzyme activity in the presence of the substance
[Zn+2] [Zn^++] | No alteration of activity
[Ca+2] [Ca^++] | No alteration of activity
O=C(O)CN(CCN(CC(=O)O)CC(=O)O)CC(=O)O [EDTA] | No alteration of activity
N[C@@H](CS)C(=O)O [cysteine] | No alteration of activity
Nc1ncnc2c1ncn2[C@@H]1O[C@H](COP(=O)(O)OP(=O)(O)O)[C@@H](O)[C@H]1O [ADP] | No alteration of activity
Nc1ncnc2c1ncn2[C@@H]1O[C@H](COP(=O)(O)OP(=O)(O)OP(=O)(O)O)[C@@H](O)[C@H]1O [ATP] | No alteration of activity
[Mg+2] [Mg^++] | No alteration of activity
[Mn+2] [MN^++] | No alteration of activity

same assay, conditions: substrate specificity and cofactor requirements

SMILES | Activity of the enzyme with the substance as substrate or cofactor
NC(=O)C1=CN([C@@H]2O[C@H](COP(=O)(O)OP(=O)(O)OC[C@H]3O[C@@H](n4cnc5c(N)ncnc54)[C@H](O)[C@@H]3O)[C@@H](O)[C@H]2O)C=CC1 [NADH] | No activity
O=C(O)[C@H](O)[C@@H](O)[C@H](O)[C@H](O)CO [D-gluconic acid] | No activity
O=C(O)C(=O)[C@@H](O)[C@H](O)[C@H](O)CO [2-KDG, 2-keto-D-gluconic acid] | No activity
O=C(CO)[C@@H](O)[C@H](O)[C@@H](O)C(=O)O [5-KDG, 5-keto-D-gluconic acid] | No activity
O=C(O)C(=O)[C@@H](O)[C@H](O)[C@@H](O)CO [2-KLG, 2-keto-L-gulonic acid] | No activity
